Patent US20200393377A1, “Microscopy for Rapid Antibiotic Susceptibility Test Using Membrane Fluorescence Staining and Spectral Intensity Ratio” (POCARED Diagnostics LTD., priority 2019, published 2020)

Columns and labels:
E. coli [1] = assay: Rapid AST/MIC by membrane fluorescence staining, SIR from IN Cell confocal imaging; type: cell-based; details: InCell measurement; SIR (610 nm/530 nm) vs antibiotic concentration, step function fit; 2-4 hours antibiotic exposure at 37° C.; Synaptogreen/FM 1-43 dye
Experimental: In general, the method includes blood culture centrifugation, bacterial antimicrobial exposure for 2 to 4 hours, bacteria staining with a single fluorescence dye followed by laser confocal microscopy, and mathematical analysis.
Sample Preparation—Macro Dilution Method • a) Antimicrobial (Gentamicin) stock solutions were prepared according to CLSI recommendations, and were diluted in CAMHB, to a concentration which was 2 fold higher from the highest concentration recommended for each antimicrobial combination (“Class II Special Controls Guidance Document: Antimicrobial Susceptibility Test (AST) Systems”, Aug. […] The images were taken through a green filter (530 nm) and red filter (615 nm) one after the other for each image. • i) images were analyzed using GE In Cell Investigator image analysis software. For each image the following operation were performed; segmentation for identifying the bacteria, for each bacteria the intensity in the green and […] were recorded, and a scatter plot of the bacteria population was plotted (x axis—intensity in the green, y axis—intensity in the red).
To quantify the influence of a certain antimicrobial exposure we define the spectral intensity ratio (SIR) as follows: […]
The MIC is calculated by plotting the spectral intensity ratio (SIR) as a function of the antimicrobial concentration and approximating it to a step function in the form of […]

E. coli [2] = assay: MIC by SIR from flow cytometer measurement; type: cell-based; details: SIR vs antibiotic concentration
Experimental: The MIC is calculated by plotting the spectral intensity ratio (SIR) as a function of the antimicrobial concentration and approximating it to a step function in the form of
Where a, b, and c are parameters and erf is the error function. The parameters are used to approximate the measured SIR to a step function; a is a scaling parameter, b determines the step slope, and c is the MIC value, or a function of it. The SIR values are used to determine the erf parameters by a best fit approximation.
We measured E. coli exposed to gentamicin at 4 concentration. The MIC was calculated using the spectral intensity ratio (SIR) calculation and step function estimation using MATLAB software.
FIG. 3 provides plots showing the SIR as a function of the antibiotic concentration for the InCell measurement (top) and flow cytometer measurement (bottom). As can been seen from the graphs, their shapes are similar, although the InCell measurement has less data points, and the MIC is 0.5 μg/ml in both cases. Live bacteria population (0 μg/ml) have lower SIR then the dead ones (>0.5 μg/ml). At the MIC (0.5 ug/ml) there is a large increase in the SIR. […] The SIR then decreases at very high (>4 ug/ml) antibiotic concentrations.

Substance: gentamicin
- MIC (E. coli [1]): 0.5 µg/mL
- MIC (E. coli [2]): 0.5 µg/mL
